Reference: ChEMBL document CHEMBL1130658 (Bioorg Med Chem Lett, 1998)

Assays:
MAP kinase p38 = MAP kinase p38 (Homo sapiens, UniProt O15264+Q15759+Q16539+P53778); test: Compound was tested for inhibition of p38 MAP kinase; type: protein assay
CYP2D6 = CYP2D6 (Homo sapiens, UniProt P10635); test: Percent inhibition of human hepatic cytochrome P450 2D6 at 10 uM; type: ADME
Mus musculus [1] = species on record: Mus musculus; test: Effective dose required to determine the oral activity in the mouse LPS-induced TNF alpha assay; type: functional
Mus musculus [2] = test: Effective dose required to determine the oral activity in the mouse LPS-induced TNF alpha assay at a dose of 50 mg/kg; type: functional
Mus musculus [3] = test: Effective dose required to determine the oral activity in the mouse LPS-induced TNF alpha assay at a dose of 50 mg/Kg; type: functional

Sequence of CYP2D6 (P10635 whole entry): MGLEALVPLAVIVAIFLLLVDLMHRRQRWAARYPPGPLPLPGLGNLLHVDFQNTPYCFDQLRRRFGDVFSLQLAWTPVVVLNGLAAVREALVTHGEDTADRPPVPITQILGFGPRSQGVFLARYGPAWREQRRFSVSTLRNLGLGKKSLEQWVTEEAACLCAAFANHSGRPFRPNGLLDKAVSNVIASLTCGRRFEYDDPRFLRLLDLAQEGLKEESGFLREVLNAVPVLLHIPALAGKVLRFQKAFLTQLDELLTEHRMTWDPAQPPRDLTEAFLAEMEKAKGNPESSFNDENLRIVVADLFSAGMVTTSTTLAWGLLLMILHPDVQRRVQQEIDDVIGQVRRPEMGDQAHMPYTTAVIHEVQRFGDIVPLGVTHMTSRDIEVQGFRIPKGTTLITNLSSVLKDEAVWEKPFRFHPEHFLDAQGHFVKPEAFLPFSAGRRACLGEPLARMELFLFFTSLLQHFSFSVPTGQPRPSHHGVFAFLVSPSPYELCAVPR

| SMILES | IC50 (MAP kinase p38) [µM] | inhibition at 10 µM (CYP2D6) [%] | ED50 (Mus musculus [1]) [mg/kg] | inhibition in vivo at 50 mg/kg (Mus musculus [2]) [%] | inhibition in vivo at 50 mg/kg (Mus musculus [3]) [%] |
| --- | --- | --- | --- | --- | --- |
| CSc1nc(N)cc(-c2c(-c3ccc(F)cc3)ncn2CCCN2CCOCC2)n1 | > 17 | – | – | – | – |
| CNc1nccc(-c2c(-c3ccc(F)cc3)ncn2CCCN2CCOCC2)n1 | 1.9 | 11 | 19 | – | – |
| C[S+]([O-])c1nccc(-c2c(-c3ccc(F)cc3)ncn2CCCN2CCOCC2)n1 (stereo not drawn) | 2.2 | – | – | 37 | – |
| COc1cc(-c2c(-c3ccc(F)cc3)ncn2CCCN2CCOCC2)ncn1 | > 17 | – | – | – | – |
| CSc1nccc(-c2c(-c3ccc(F)cc3)ncn2CCCN2CCOCC2)n1 | 2 | 47 | 43 | – | – |
| Cc1cc(-c2c(-c3ccc(F)cc3)ncn2CCCN2CCOCC2)cc(C)n1 | > 17 | – | – | – | – |
| COc1nccc(-c2c(-c3ccc(F)cc3)ncn2CCCN2CCOCC2)n1 | – | 7 | 14 | – | – |
| Nc1nccc(-c2c(-c3ccc(F)cc3)ncn2CCCN2CCOCC2)n1 | – | 47 | – | – | – |
| Fc1ccc(-c2ncn(CCCN3CCOCC3)c2-c2ccncn2)cc1 | – | 34 | 12 | – | – |
| Cc1nccc(-c2c(-c3ccc(F)cc3)ncn2CCCN2CCOCC2)n1 | 1.3 | 19 | – | – | 65 |
| Cc1cc(-c2c(-c3ccc(F)cc3)ncn2CCCN2CCOCC2)nc(N)n1 | > 17 | – | – | – | – |
| CN(C)c1nccc(-c2c(-c3ccc(F)cc3)ncn2CCCN2CCOCC2)n1 | 3.6 | – | – | – | – |
| Cc1cc(-c2c(-c3ccc(F)cc3)ncn2CCCN2CCOCC2)ccn1 | 2.1 | 51 | – | 37 | – |
| CC(=O)Nc1cc(-c2c(-c3ccc(F)cc3)ncn2CCCN2CCOCC2)ncn1 | 3.5 | – | – | 21 | – |
| CC(=O)Nc1nccc(-c2c(-c3ccc(F)cc3)ncn2CCCN2CCOCC2)n1 | 0.46 | – | – | 12 | – |
| Nc1cc(-c2c(-c3ccc(F)cc3)ncn2CCCN2CCOCC2)ncn1 | > 17 | – | – | – | – |
| Oc1nccc(-c2c(-c3ccc(F)cc3)ncn2CCCN2CCOCC2)n1 | 5.5 | – | – | 33 | – |
| Fc1ccc(-c2ncn(CCCN3CCOCC3)c2-c2ccncc2)cc1 [SB-210313] | – | 86 | 42 | – | – |
